{
  "source": "ChEMBL document CHEMBL5380850",
  "about": "“Discovery of the First Raptor (Regulatory-Associated Protein of mTOR) Inhibitor as a New Type of Antiadipogenic Agent” (J Med Chem, 2023)",
  "note": "Calls of active or inactive are those of the source. The rule behind the calls is not given here.",
  "data": [
    {"test_system": "3T3-L1", "test": "Anti-adipogenic activity against mouse 3T3-L1 cells assessed as decrease in triglyceride level incubated for […] by Oil Red O staining based microscopic analysis", "assay_type": "functional, cell-based", "details": "not given", "units": {"IC50": "nM"}, "values": [
      {"smiles": "C=C(C)[C@@]12OC3(c4ccccc4)O[C@@H]1[C@@H]1[C@H](O)[C@](Cl)(COC(=O)c4ccccc4)[C@@H](OC(=O)CCCCCNC(=O)CCCC[C@@H]4SC[C@@H]5NC(=O)N[C@@H]54)[C@]4(O)C(=O)C(C)=C[C@H]4[C@@]1(O3)[C@H](C)[C@H]2OC(C)=O", "IC50": 1050}
    ]},
    {"test_system": "3T3-L1", "test": "Anti-adipogenic activity against mouse 3T3-L1 cells assessed as decrease in triglyceride level at 1 uM by Oil Red O staining based spectroscopic analysis", "assay_type": "functional", "parameters": "scale not given: the % may be the effect or the level left", "details": "not given", "units": {"Activity": "%"}, "values": [
      {"smiles": "C=C(C)[C@@]12OC3(c4ccccc4)O[C@@H]1[C@@H]1[C@H](O)[C@](Cl)(CO)[C@@H](O)[C@]4(O)C(=O)C(C)=C[C@H]4[C@@]1(O3)[C@H](C)[C@H]2OC(C)=O", "Activity": ">50"},
      {"smiles": "C=C(C)[C@@]12OC3(c4ccccc4)O[C@@H]1[C@@H]1[C@@H]4O[C@]4(CO)[C@@H](O)[C@]4(O)C(=O)C(C)=C[C@H]4[C@@]1(O3)[C@H](C)[C@H]2OC(=O)CC", "Activity": ">50"},
      {"smiles": "C=C(C)[C@@]12OC3(/C=C/C=C/CCCCC)O[C@@H]1[C@@H]1[C@@H]4O[C@]4(CO)[C@@H](O)[C@]4(O)C(=O)C(C)=C[C@H]4[C@@]1(O3)[C@H](C)[C@H]2OC(=O)c1ccccc1", "Activity": ">50"},
      {"smiles": "C=C(C)[C@@]12OC3(/C=C/C=C/CCCCC)O[C@@H]1[C@@H]1[C@@H]4O[C@]4(COC(C)=O)[C@@H](OC(C)=O)[C@]4(O)C(=O)C(C)=C[C@H]4[C@@]1(O3)[C@H](C)[C@H]2OC(=O)c1ccccc1", "Activity": ">50"},
      {"smiles": "C=C(C)[C@@]12OC3(c4ccccc4)O[C@@H]1[C@@H]1[C@@H](Cl)[C@@](O)(COC(=O)c4ccccc4)[C@@H](O)[C@]4(O)C(=O)C(C)=C[C@H]4[C@@]1(O3)[C@H](C)[C@H]2OC(C)=O", "Activity": ">50"},
      {"smiles": "C=C(C)[C@@]12OC3(/C=C/C=C/CCCCC)O[C@@H]1[C@@H]1[C@@H]4O[C@]4(COC(=O)c4ccccc4)[C@@H](O)[C@]4(O)C(=O)C(C)=C[C@H]4[C@@]1(O3)[C@H](C)[C@H]2OC(C)=O", "Activity": ">50"},
      {"smiles": "C=C(C)[C@@]12OC3(c4ccccc4)O[C@@H]1[C@@H]1[C@@H]4O[C@]4(COC(=O)c4ccccc4)[C@@H](O)[C@]4(O)C(=O)C(C)=C[C@H]4[C@@]1(O3)[C@H](C)[C@H]2OC(=O)c1ccccc1", "Activity": ">50"},
      {"smiles": "C=C(C)[C@@]12OC3(c4ccccc4)O[C@@H]1[C@@H]1[C@@H](Cl)[C@@](O)(CO)[C@@H](O)[C@]4(O)C(=O)C(C)=C[C@H]4[C@@]1(O3)[C@H](C)[C@H]2OC(C)=O", "Activity": ">50"},
      {"smiles": "C=C(C)[C@@]12OC3(/C=C/C=C/CCCCC)O[C@@H]1[C@@H]1[C@@H]4O[C@]4(CO)[C@@H](O)[C@]4(O)C(=O)C(C)=C[C@H]4[C@@]1(O3)[C@H](C)[C@H]2OC(=O)CCC", "Activity": ">50"},
      {"smiles": "C=C(C)[C@@]12OC3(/C=C/C=C/CCCCC)O[C@@H]1[C@@H]1[C@@H]4O[C@]4(COC(C)=O)[C@@H](O)[C@]4(O)C(=O)C(C)=C[C@H]4[C@@]1(O3)[C@H](C)[C@H]2OC(C)=O", "Activity": ">50"},
      {"smiles": "C=C(C)[C@@]12OC3(/C=C/C=C/CCCCC)O[C@@H]1[C@@H]1[C@@H]4O[C@]4(COC(C)=O)[C@@H](O)[C@]4(O)C(=O)C(C)=C[C@H]4[C@@]1(O3)[C@H](C)[C@H]2OC(=O)c1ccccc1", "Activity": ">50"},
      {"smiles": "C=C(C)[C@@]12OC3(c4ccccc4)O[C@@H]1[C@@H]1[C@@H]4O[C@]4(COC(C)=O)[C@@H](O)[C@]4(O)C(=O)C(C)=C[C@H]4[C@@]1(O3)[C@H](C)[C@H]2OC(C)=O", "Activity": ">50"},
      {"smiles": "C=C(C)[C@@]12OC3(c4ccccc4)O[C@@H]1[C@@H]1[C@@H]4O[C@]4(COC(=O)c4ccccc4)[C@@H](O)[C@]4(O)C(=O)C(C)=C[C@H]4[C@@]1(O3)[C@H](C)[C@H]2OC(C)=O", "Activity": ">50"},
      {"smiles": "C=C(C)[C@@]12OC3(c4ccccc4)O[C@@H]1[C@@H]1[C@H](O)[C@](Cl)(CO)[C@@H](O)[C@]4(O)C(=O)C(C)=C[C@H]4[C@@]1(O3)[C@H](C)[C@H]2OC(=O)c1ccccc1", "Activity": ">50"},
      {"smiles": "C=C(C)[C@@]12OC3(c4ccccc4)O[C@@H]1[C@@H]1[C@@H](Cl)[C@@](O)(CO)[C@@H](O)[C@]4(O)C(=O)C(C)=C[C@H]4[C@@]1(O3)[C@H](C)[C@H]2OC(=O)c1ccccc1", "Activity": ">50"},
      {"smiles": "C=C(C)[C@@]12OC3(/C=C/C=C/CCCCC)O[C@@H]1[C@@H]1[C@@H]4O[C@]4(COC(C)=O)[C@@H](OC(C)=O)[C@]4(O)C(=O)C(C)=C[C@H]4[C@@]1(O3)[C@H](C)[C@H]2OC(C)=O", "Activity": ">50"},
      {"smiles": "C=C(C)[C@@]12OC3(c4ccccc4)O[C@@H]1[C@@H]1[C@@H]4O[C@]4(CO)[C@@H](O)[C@]4(O)C(=O)C(C)=C[C@H]4[C@@]1(O3)[C@H](C)[C@H]2OC(=O)c1ccccc1", "Activity": ">50"},
      {"smiles": "C=C(C)[C@@]12OC3(c4ccccc4)O[C@@H]1[C@@H]1[C@@H]4O[C@]4(CO)[C@@H](O)[C@]4(O)C(=O)C(C)=C[C@H]4[C@@]1(O3)[C@H](C)[C@H]2OC(C)=O", "Activity": ">50"},
      {"smiles": "C=C(C)[C@@]12OC3(/C=C/C=C/CCCCC)O[C@@H]1[C@@H]1[C@@H]4O[C@]4(CO)[C@@H](O)[C@]4(O)C(=O)C(C)=C[C@H]4[C@@]1(O3)[C@H](C)[C@H]2OC(C)=O", "Activity": ">50"},
      {"smiles": "C=C(C)[C@@]12OC3(c4ccccc4)O[C@@H]1[C@@H]1[C@@H]4O[C@]4(CO)[C@@H](O)[C@]4(O)C(=O)C(C)=C[C@H]4[C@@]1(O3)[C@H](C)[C@H]2OC(=O)CCC", "Activity": ">50"},
      {"smiles": "C=C(C)[C@@]12OC3(c4ccccc4)O[C@@H]1[C@@H]1[C@@H]4O[C@]4(COC(C)=O)[C@@H](O)[C@]4(O)C(=O)C(C)=C[C@H]4[C@@]1(O3)[C@H](C)[C@H]2OC(=O)c1ccccc1", "Activity": ">50"},
      {"smiles": "C=C(C)[C@@]12OC3(c4ccccc4)O[C@@H]1[C@@H]1[C@@H]4O[C@]4(CO)[C@@H](O)[C@]4(O)C(=O)[C@@H](C)C[C@H]4[C@@]1(O3)[C@H](C)[C@H]2OC(=O)c1ccccc1", "Activity": ">50"}
    ]},
    {"molecular_target": "Regulatory-associated protein of mTOR (Mus musculus) (UniProt Q8K4Q0)", "sequence (Q8K4Q0 whole entry, looked up)": "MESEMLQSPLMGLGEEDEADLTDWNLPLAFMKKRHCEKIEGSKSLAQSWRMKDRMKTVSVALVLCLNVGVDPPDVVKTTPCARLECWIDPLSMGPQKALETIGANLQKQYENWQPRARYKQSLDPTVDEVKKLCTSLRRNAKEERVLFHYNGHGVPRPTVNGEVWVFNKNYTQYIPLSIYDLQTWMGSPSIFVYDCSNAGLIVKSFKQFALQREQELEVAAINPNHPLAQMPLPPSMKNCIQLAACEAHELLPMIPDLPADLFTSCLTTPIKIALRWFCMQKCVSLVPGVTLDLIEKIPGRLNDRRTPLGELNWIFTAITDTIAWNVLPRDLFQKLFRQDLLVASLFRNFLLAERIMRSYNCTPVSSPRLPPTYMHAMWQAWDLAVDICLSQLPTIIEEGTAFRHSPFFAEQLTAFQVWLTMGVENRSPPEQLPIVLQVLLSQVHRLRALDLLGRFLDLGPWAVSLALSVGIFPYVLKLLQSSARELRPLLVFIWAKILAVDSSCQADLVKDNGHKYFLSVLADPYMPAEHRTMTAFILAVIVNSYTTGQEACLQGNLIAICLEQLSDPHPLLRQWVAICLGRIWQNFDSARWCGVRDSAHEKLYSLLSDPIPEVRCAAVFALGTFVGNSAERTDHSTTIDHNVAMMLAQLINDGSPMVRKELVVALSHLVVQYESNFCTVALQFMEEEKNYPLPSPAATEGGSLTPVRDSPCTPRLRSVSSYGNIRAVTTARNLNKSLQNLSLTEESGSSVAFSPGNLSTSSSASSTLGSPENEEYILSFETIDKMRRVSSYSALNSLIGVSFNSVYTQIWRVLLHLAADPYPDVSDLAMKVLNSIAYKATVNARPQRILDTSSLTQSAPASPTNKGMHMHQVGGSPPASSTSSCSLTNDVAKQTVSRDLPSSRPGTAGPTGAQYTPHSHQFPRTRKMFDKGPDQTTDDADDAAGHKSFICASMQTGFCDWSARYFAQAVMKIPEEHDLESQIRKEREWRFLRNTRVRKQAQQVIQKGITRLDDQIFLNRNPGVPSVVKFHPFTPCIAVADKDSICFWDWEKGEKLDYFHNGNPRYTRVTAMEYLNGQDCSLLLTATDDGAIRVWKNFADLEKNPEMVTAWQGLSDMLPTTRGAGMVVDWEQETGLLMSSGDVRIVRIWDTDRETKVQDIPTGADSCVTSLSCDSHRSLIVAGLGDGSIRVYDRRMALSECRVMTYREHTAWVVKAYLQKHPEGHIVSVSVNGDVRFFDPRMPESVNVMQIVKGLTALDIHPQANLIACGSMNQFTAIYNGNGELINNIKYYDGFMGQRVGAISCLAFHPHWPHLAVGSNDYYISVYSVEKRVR", "test": "Binding affinity to Raptor in mouse 3T3-L1 cells at 1 to 10 uM incubated overnight by pull-down assay", "details": "dose 1-10 µM", "values": [
      {"smiles": "C=C(C)[C@@]12OC3(c4ccccc4)O[C@@H]1[C@@H]1[C@H](O)[C@](Cl)(COC(=O)c4ccccc4)[C@@H](OC(=O)CCCCCNC(=O)CCCC[C@@H]4SC[C@@H]5NC(=O)N[C@@H]54)[C@]4(O)C(=O)C(C)=C[C@H]4[C@@]1(O3)[C@H](C)[C@H]2OC(C)=O", "Activity": "Active"}
    ]}
  ]
}
